# Values of other authors in patent US20080221211A1, “METHOD OF TREATMENT OF NEUROLOGICAL INJURY OR CANCER BY ADMINISTRATION OF DICHLOROACETATE” (priority 2007, published 2008).
# How the values were obtained:
# [1] = in vivo
# [2] = test system: cancer cell lines; conditions: restored mitochondrial function and apoptosis
# [3] = test system: tumors; conditions: rat model
# [4] = test system: infarct size after stroke; conditions: rat; given within 2.25 hours of a stroke
# [5] = test system: infarct size; conditions: rat pMCAo model; infusion
# [6] = test system: cytochome oxidase activity in primary neurons
compound,measurement,setting,value
"O=C(O)C(Cl)Cl [DCA, dichloroacetic acid]",reported adverse effect,[1],neuropathy
same,effect on cancer cells in vitro,[2],killing cancer cells in vitro
same,effect on tumors in rats,[3],shrinking the tumors in rats
CC(C)(C)[N+]([O-])=Cc1ccc(S(=O)(=O)[O-])cc1S(=O)(=O)[O-].[Na+].[Na+] [NXY-059],effect on infarct size,[4],reduces infarct size
VEGF,effect on infarct size,[5],reduction of infarct size
"NC1=N[C@H](O)[C@H]2[C@H]3O[C@]4(O)O[C@@H]([C@@H](O)[C@@]2(N1)[C@@H]4O)[C@]3(O)CO [TTX, tetrodotoxin]",effect on cytochrome oxidase activity,[6],reduces cytochome oxidase activity
